Source: patent US4001325A, “α-Chloroacetanilide selective herbicides” (Diamond Shamrock Corporation, priority 1973, dated 1977)

What was measured:
Soybeans = experiment: Field preemergence test, phytotoxic effects on crop; type: in vivo, var. Davis
Excerpt: (§1) Test plots of fertilized, light sandy soil containing 0.7% organic matter are sprayed uniformly with aqueous suspensions prepared from emulsifiable concentrates containing 12%, by weight, of the test chemicals diluted to provide dosage rates of the test compounds corresponding to 2.0, 1.0, 0.5, and 0.25 pound per acre (lb/A). The plots are then sown with seeds of the following crop plants: sweet corn, cotton (Coker 413) and soybeans, var. Davis. Seeds of the following weed plants are planted: redroot pigweed, prickly sida, common lambsquarter, goosegrass and giant foxtail.
(§2) Three to four weeks after planting, percent control (plant kill) of the test plants is estimated, from a rating of 0 which denotes no injury to the plant up to 100 which denotes complete destruction. The herbicidal action of the test compounds obtained on the weed species is as follows:
(§3) Phytotoxic effects observed on the crop species is estimated with results as follows: […]

[1] = tested on: broadleaf species: pigweed, velvetleaf, morningglory; experiment: Greenhouse preemergence herbicide test, broadleaves; type: in vivo; conditions: two weeks after treatment, 20160 min
Protocol: (§4) To illustrate the preemergence herbicidal efficiency of the alkyl-substituted 2-chloro-N-propargylacetanilides of this invention, test formulations are prepared of each compound by mixing 20 ml of an acetone solution containing 0.125 g of chemical with 20 ml of water containing 0.01 g of Triton X-155 surfactant. The resultant formulations contain 3125 ppm of test compound, 50% by volume of acetone and 0.025% by weight of surfactant. Appropriate lower concentrations are obtained by diluting this formulation with surfactant-acetone solution so that the concentration of adjuvants is maintained at the original levels.
(§5) Seeds of three broadleaf and three grass species are planted in soil contained in 10 inch × 8 inch × 3 inch aluminum pans filled with 1.5 inches of composted soil. The broadleaf species are pigweed (Amaranthus retroflexus), velvetleaf (Abutilon theophrasti), and morningglory (Ipomea coccinea); the grasses are red millet (Panicum milliacem), green foxtail (Setaria viridis) and Japanese millet (Echinochloa frumentacea).
(§6) The seeded pans are sprayed so that the soil surface is uniformly covered with dilutions of the stock formulation providing dosage rates of the test compounds as shown in the following table.
(§7) Two weeks after treatment, percent control (plant kill) at each dosage rate is estimated with results as follows: […]

Yellow Foxtail [2] = experiment: Example 18 preemergence herbicide test in different soils, % control; type: in vivo; conditions: three weeks
Protocol: To further illustrate the herbicidal activity of compounds of this invention in different types of soil as would be encountered in different crop growing localities, a preemergence herbicide test is conducted generally as outlined previously herein. Two light sandy soils are employed containing 0.7% and 1.8% organic matter (O.M.), respectively, along with two loam-type, heavier soils containing either 2.0% or 5-5.5% organic matter (O.M.).
The test plots are all sprayed uniformly with formulations of the test compounds providing 2.0, 1.0, 0.5, and 0.25 pound of active chemical per acre (lb/A).
Prior to treatment, the soil plots are sown to field corn, soybean, and grain sorghum crops and seeds of barnyard-grass and yellow foxtail.
Three weeks after planting, the percent control of plant growth is rated from 0% (no injury) to 100% (total destruction).

[3] = tested on: grass species: red millet, green foxtail, Japanese millet; experiment: Greenhouse preemergence herbicide test, grasses; type: in vivo, Panicum milliacem, Setaria viridis, Echinochloa frumentacea; conditions: pre-emergence, 336 h, two weeks after treatment
Protocol: as §4, §5, §6, §7

Barnyardgrass = experiment: Example 17 selective herbicidal activity in corn crop, weed kill; type: in vivo, Echinochloa crusgalli; conditions: Echinochloa crus-galli, 3-4 weeks after planting
Excerpt: (§8) This example illustrates the selective herbicidal activity of two of the presently preferred compounds of this invention against various weed species in a corn crop.
(§9) Plots of light sandy soil, cleared of all weeds, are uniformly treated with aqueous dispersions prepared from an emulsifiable concentrate containing 2- 4 pounds of active ingredient per gallon. Diluted aqueous dispersions are applied as surface treatments at 2.0, 1.0, 0.5, and 0.25 pound of active ingredient per acre (lb/A).
(§10) The treated test plots are sown to corn and with seeds of the following weed species:
(§11) Three to four weeks after planting, the degree of damage to both the corn stands and the weed plants is assessed from a rating of 0% (no injury) to 100% (complete destruction).

Cotton = experiment: Field preemergence test, phytotoxic effects on crop; type: in vivo, cotton (Coker 413)
Excerpt: as §1, §2, §3

Goosegrass [4] = experiment: Field preemergence test, weed control; type: in vivo; conditions: 3-4 weeks after planting
Excerpt: as §1
(§12) Three to four weeks after planting, percent control (plant kill) of the test plants is estimated, from a rating of 0 which denotes no injury to the plant up to 100 which denotes complete destruction. The herbicidal action of the test compounds obtained on the weed species is as follows: […]

Redroot Pigweed = experiment: Field preemergence test, weed control; type: in vivo; conditions: 3-4 weeks after planting
Excerpt: as §1, §12

Giant Foxtail = experiment: Field preemergence test, weed control; type: in vivo; conditions: 3-4 weeks after planting
Excerpt: as §1, §12

Common Lambsquarter = experiment: Field preemergence test, weed control; type: in vivo; conditions: 3-4 weeks after planting
Excerpt: as §1, §12

Goosegrass [5] = experiment: Example 17 selective herbicidal activity in corn crop, weed kill; type: in vivo, Eleusine indica; conditions: 3-4 weeks after planting
Excerpt: as §8, §9, §10, §11

Yellow Foxtail [6] = experiment: as above; type: in vivo, Setaria lutescens; conditions: Setaria, 3-4 weeks after planting
Excerpt: as §8, §9, §10, §11

Corn = experiment: Field preemergence test, phytotoxic effects on crop; type: in vivo, sweet corn
Excerpt: as §1, §2, §3

With `C#CCN(C(=O)CCl)c1c(CC)cccc1CC` [Example 9, 2-Chloro-2',6'-diethyl-N-propargylacetanilide] the “% Crop Kill, Soybeans” value (Soybeans; 1.0 lb/A) was 0%, the “% Crop Kill, Soybeans” value (Soybeans; 2.0 lb/A) was 0% and the “% Control, Broadleaves” value ([1]; 0.062 lb/A) was 0%. For the same compound, the “% Control, Broadleaves” value ([1]; 0.125 lb/A) was 0%, the “% Control, Broadleaves” value ([1]; 0.25 lb/A) was 0% and the “% Control, Broadleaves” value ([1]; 0.5 lb/A) was 35%. The “% Control, Broadleaves” value ([1]; 1.0 lb/A) was 35%, the “% Control, Yellow Foxtail” value (Yellow Foxtail [2]; 0.5 lb/A, Heavy Soil 5-5.5% O.M.) was 90% and the “% Control, Yellow Foxtail” value (Yellow Foxtail [2]; 0.5 lb/A, Medium Soil 2.0% O.M.) was 90%. For the same compound, the “% Control, Yellow Foxtail” value (Yellow Foxtail [2]; 0.5 lb/A, Sand 0.7% O.M.) was 50%, the “% Control, Yellow Foxtail” value (Yellow Foxtail [2]; 0.5 lb/A, Sand 1.8% O.M.) was 85% and the “% Control, Yellow Foxtail” value (Yellow Foxtail [2]; 1.0 lb/A, Heavy Soil 5-5.5% O.M.) was 100%. For the same compound, the “% Control, Yellow Foxtail” value (Yellow Foxtail [2]; 1.0 lb/A, Medium Soil 2.0% O.M.) was 100%, the “% Control, Yellow Foxtail” value (Yellow Foxtail [2]; 1.0 lb/A, Sand 0.7% O.M.) was 70% and the “% Control, Yellow Foxtail” value (Yellow Foxtail [2]; 1.0 lb/A, Sand 1.8% O.M.) was 80%. The “% Control, Yellow Foxtail” value (Yellow Foxtail [2]; 2.0 lb/A, Heavy Soil 5-5.5% O.M.) was 100%, the “% Control, Yellow Foxtail” value (Yellow Foxtail [2]; 2.0 lb/A, Medium Soil 2.0% O.M.) was 100% and the “% Control, Yellow Foxtail” value (Yellow Foxtail [2]; 2.0 lb/A, Sand 0.7% O.M.) was 100%. For the same compound, the “% Control, Yellow Foxtail” value (Yellow Foxtail [2]; 2.0 lb/A, Sand 1.8% O.M.) was 100%, the pest or weed control at 69.4927 g/ha ([3]; 0.062 lb/A) was 85% and the pest or weed control at 140.106 g/ha ([3]; 0.125 lb/A) was 95%. It also gave a pest or weed control at 280.212 g/ha ([3]; 0.25 lb/A) of 95%, a pest or weed control at 560.425 g/ha ([3]; 0.5 lb/A) of 90% and a pest or weed control at 1120.85 g/ha ([3]; 1.0 lb/A) of 95%. The mortality at 280.212 g/ha (Barnyardgrass; 0.25 lb/A) was 68%, the mortality at 560.425 g/ha (Barnyardgrass; 0.5 lb/A) was 98% and the mortality at 1120.85 g/ha (Barnyardgrass; 1.0 lb/A) was 98%. The mortality at 2241.7 g/ha (Barnyardgrass; 2.0 lb/A) was 100%, the “% Crop Kill, Cotton” value (Cotton; 1.0 lb/A) was 0% and the “% Crop Kill, Cotton” value (Cotton; 2.0 lb/A) was 3%. The “% Weed Control, Goosegrass” value (Goosegrass [4]; 0.25 lb/A) was 94%, the “% Weed Control, Goosegrass” value (Goosegrass [4]; 0.5 lb/A) was 98% and the “% Weed Control, Goosegrass” value (Goosegrass [4]; 1.0 lb/A) was 100%. For the same compound, the “% Weed Control, Goosegrass” value (Goosegrass [4]; 2.0 lb/A) was 100%, the “% Weed Control, Redroot Pigweed” value (Redroot Pigweed; 0.25 lb/A) was 75% and the “% Weed Control, Redroot Pigweed” value (Redroot Pigweed; 0.5 lb/A) was 93%. The “% Weed Control, Redroot Pigweed” value (Redroot Pigweed; 1.0 lb/A) was 100%, the “% Weed Control, Redroot Pigweed” value (Redroot Pigweed; 2.0 lb/A) was 100% and the “% Weed Control, Giant Foxtail” value (Giant Foxtail; 0.25 lb/A) was 42%. For the same compound, the “% Weed Control, Giant Foxtail” value (Giant Foxtail; 0.5 lb/A) was 85%, the “% Weed Control, Giant Foxtail” value (Giant Foxtail; 1.0 lb/A) was 97% and the “% Weed Control, Giant Foxtail” value (Giant Foxtail; 2.0 lb/A) was 100%. For the same compound, the “% Weed Control, Common Lambsquarter” value (Common Lambsquarter; 0.25 lb/A) was 95%, the “% Weed Control, Common Lambsquarter” value (Common Lambsquarter; 0.5 lb/A) was 100% and the “% Weed Control, Common Lambsquarter” value (Common Lambsquarter; 1.0 lb/A) was 100%. For the same compound, the “% Weed Control, Common Lambsquarter” value (Common Lambsquarter; 2.0 lb/A) was 100%, the “% Weed Kill, Goosegrass” value (Goosegrass [5]; 0.25 lb/A) was 87% and the “% Weed Kill, Goosegrass” value (Goosegrass [5]; 0.5 lb/A) was 100%. The “% Weed Kill, Goosegrass” value (Goosegrass [5]; 1.0 lb/A) was 100%, the “% Weed Kill, Goosegrass” value (Goosegrass [5]; 2.0 lb/A) was 100% and the mortality at 280.212 g/ha (Yellow Foxtail [6]; 0.25 lb/A) was 80%. The mortality at 560.425 g/ha (Yellow Foxtail [6]; 0.5 lb/A) was 95%, the mortality at 1120.85 g/ha (Yellow Foxtail [6]; 1.0 lb/A) was 100% and the mortality at 2241.7 g/ha (Yellow Foxtail [6]; 2.0 lb/A) was 100%. For the same compound, the “% Crop Kill, Corn” value (Corn; 1.0 lb/A) was 0% and the “% Crop Kill, Corn” value (Corn; 2.0 lb/A) was 3%.
